Experiment: Blood levels in mice after oral or subcutaneous administration, assayed by biological β-lactamase inhibition-zone technique
Assay type: in vivo
Conditions: for concentration at 0.5 h: 30 mins after administration; for concentration at 0.75 h: 45 mins after administration; for concentration at 1 h: 60 mins after administration; for concentration at 1.5 h: 90 mins after administration; for concentration at 2 h: 120 mins after administration; for AUC: mice
Experimental: The compound of Example 4 was administered either orally (by gastric lavage) or subcutaneously as a solution to groups of mice. At intervals after administration, 5 mice which had received the compound subcutaneously and 10 mice which had received the compound orally were sacrificed, and blood collected from the axillary region. The blood was assayed for content of compound 4 using a biological β-lactamase inhibition-zone assay technique. The mean values (+ standard deviation - SD) are tabulated below.

[1] = mouse, blood, sc, subcutaneous administration, 10 mg/kg, average for 5 mice
[2] = mouse, blood, oral administration, 20 mg/kg, average for 10 mice

For O=C(O)C1C(=CCOCCCl)OC2CC(=O)N21 (stereo not shown) [Example 4, Lithium 9-0-(2-chloroethyl)clavulanate], the “levels in the blood of mice” value (administered by either an oral or parenteral route, result in words) was “high and prolonged levels”, the concentration at 10 min (mouse, blood, sc, subcutaneous administration, 10 mg/kg, 10 mins after administration, average for 5 mice) was 22800 ng/mL and the concentration at 20 min (mouse, blood, sc, subcutaneous administration, 10 mg/kg, 20 mins after administration, average for 5 mice) was 17300 ng/mL. The concentration at 0.5 h [1] was 13300 ng/mL, the concentration at 0.75 h [1] was 7700 ng/mL and the concentration at 1 h [1] was 5200 ng/mL. The concentration at 1.5 h [1] was 2700 ng/mL, the concentration at 2 h [1] was 1800 ng/mL and the concentration at 0.25 h (mouse, blood, oral administration, 20 mg/kg, 15 mins after administration, average for 10 mice) was 16600 ng/mL. It also gave a concentration at 0.5 h [2] of 10500 ng/mL, a concentration at 0.75 h [2] of 7940 ng/mL and a concentration at 1 h [2] of 7420 ng/mL. The concentration at 1.5 h [2] was 3910 ng/mL, the concentration at 2 h [2] was 3200 ng/mL and the AUC (mouse, sc, subcutaneous administration, 10 mg/kg, blood) was 15100 ng·h/mL. For the same compound, the AUC (mouse, oral administration, 20 mg/kg, blood) was 14300 ng·h/mL.

— patent EP0112685A1, “Compounds containing beta-lactams” (BEECHAM GROUP PLC, priority 1982, dated 1984)
